This note sets out measurements from patent US20120329865A1, “MOLECULES RELATED hERG ION [sequence] AND THE USE THEREOF” (priority 2009, published 2012).

Series [1] concerns MCF7. Briefly: Cell proliferation assay (CellTiter-Glo) in MCF7. The settings on record: 48 h exposure; data not shown. In kind it is cell-based. On the procedure: (§1) Proliferation was measured using the CellTiter-Glo Luminescent Cell Viability Assay (Technical Bulletin #288, Promega, Madison, Wis.). When added to cells, the assay reagent produces luminescence in the presence of ATP from viable cells. Cells were plated in 96-well Corning Costar TCT (tissue culture treated) plates at a density of 10,000 cells/well and incubated for 24 h. Test samples were solubilized in dimethyl sulfoxide (DMSO) by sonication, filter sterilized and diluted with media to the desired treatment concentration. Cells were treated with 100 μl control media, or test samples, and incubated for 48 h drug exposure duration. At the end of 48 h, plates were equilibrated at room temperature for 30 min, 100 μl of the assay reagent was added to each well and cell lysis was induced on an orbital shaker for 2 min. Plates were incubated at room temperature for 10 min to stabilize the luminescence signal and results were read on an Perkin Elmer Vector 3 Microplate Reader. All plates had control wells containing medium without cells to obtain a value for background luminescence. Data are expressed as for three replications.
(In general: In ATP-based viability assays light output follows the ATP content of the culture.)

Series [2] has as its target T1, hERG ion channels (Homo sapiens, UniProt Q12809). The experiment in a line: Label-free RWG biosensor (Epic) DMR assay, agonism mode, HT29 cells endogenously expressing hERG. Conditions: 10 micromolar. (In general: The hERG channel carries a current that helps repolarise heart muscle cells.)
Source text: (§2) Using the RWG biosensor Corning® Epic® system, all compounds were systematically characterized for their ability to modulate hERG ion channels in live cells. The Epic® system consists of a temperature-control unit, an optical detection unit, with an on-board liquid handling unit with robotics, or an external liquid accessory system with robotics. The detection unit is centered on integrated fiber optics, and enables kinetic measures of cellular responses with a time interval of ˜7 or 15 sec. The compound solutions were introduced by using either the on-board liquid handling unit, or the external liquid accessory system; both of which use conventional pippetting system.
(§3) Epic® wavelength interrogation system (Corning Inc., Corning, N.Y.) was used for whole cell sensing. This system consists of a temperature-control unit, an optical detection unit, and an on-board liquid handling unit with robotics. The detection unit is centered on integrated fiber optics, and enables kinetic measures of cellular responses with a time interval of ˜15 sec.
(§4) Cells were plated in 384-well Epic® cell culture treated plate (Corning Cat#5040) 16-20 hours before assay (15000 cells/well for HEK293 and HEK-hERG cells, 30000 cells/well for HT29 cells). For both HEK-hERG and its parental HEK293 cells, each well was coated with 10 μl 5 μg/ml fibronectin. One hour before assay, cells were washed twice on a BioTek ELx405 Select washer with Hank's Balanced Salt Solution (HBSS) containing 20 mM Hepes. Cells were incubated in 40 μl/well HBSS at 28° C. inside the Epic system for one hour. For each assay, a 2-min baseline was initiated, followed by addition of 10 μl compound solutions (5×) and the cell responses were recorded continuously for one hour.
(§5) All studies were carried out at a controlled temperature (28° C.). At least two independent sets of experiments, each with at least three replicates, were performed. […] All dose-dependent responses were analyzed using non-linear regression method with the GraphPad Prism 5.
(§6) In a specific approach, any compound can be profiled in three different types of cells, HT29, HEK-hERG, and HEK-293 cells, in both agonism and antagonism modes. The human colon cancerous cell line HT-29 is known to endogenously express hERG channels. HEK293 is a native cell line without endogenously expressed hERG channels, while HEK-hERG is an engineered HEK293 cell having stably expressed hERG channels.
The target of series [3] is T1, hERG ion channels.
Source text: (§7) Label-free RWG biosensor cellular assays were developed to directly assaying the activation and its subsequent signaling of hERG channels without applying voltages to the cells. […] Generally, the disclosed methods to characterize modulators acting directly through hERG ion channel, or indirectly via hERG-associated signaling complexes are related to label-free biosensor cellular assays. Disclosed is the use of three types of cells: a cancerous cell line endogenously expressing hERG ion channels, a native cell line without endogenous hERG channels and its engineered cell line overexpressing hERG channels, for characterizing hERG modulators. Also disclosed is the use of mallotoxin or other hERG activator as a readout to further confirm the modes of action of hERG modulators.
as §6
The target in series [4] is T1, hERG ion channels. The experiment in a line: DMR antagonism mode: modulation of the mallotoxin DMR signal in HT29 cells. The settings on record: for effect on the mallotoxin DMR signal in HT29 cells (in words): antagonism assay.
Series [5] concerns HT29. The experiment in a line: Cell proliferation assay (CellTiter-Glo) in HT29. The series is classed as cell-based, human. Conditions: for cytotoxicity on cancer cell line HT29: 25 micromolar, in vitro culture; for cell apoptosis or alteration in cell proliferation rate, HT29: 48 h exposure. On the procedure: as §1
Series [6] has as its target T1, hERG ion channels. The experiment in a line: Label-free RWG biosensor (Epic) DMR assay, agonism mode, HEK-hERG cells stably expressing hERG. The settings on record: 10 micromolar.
Source text: as §2, §3, §4, §5, §6
Series [7] deals with T1, hERG ion channels. The experiment in a line: Rb+ flux assay using HEK-hERG cells. The settings on record: 5 mM KCl, modulators at 10 or 50 micromolar (FIG. 3).
Procedure: Briefly, 50,000 cells per well were plated in 96-well tissue culture treated plates 20 hours before assay. In the next day, cells were incubated with complete cell culture medium containing 5 mM RbCl for 3 hours at 37° C. with 5% CO2. Then compounds (10×) diluted in HBSS were added into the cell culture medium and cells were incubated at 37° C. with 5% CO2 for another hour. Cells were washed twice with Rb^+ free cell culture medium and incubated with 180 μl/well of cell culture medium containing different concentration of KCl for exactly 10 minutes. The supernatant from each well was transferred to a new 96 well plate immediately. Cells were lysed with 180 μl/well 0.5% Triton100 in HBSS. The Rb^+ concentration of each sample was determined by ICR8000 (Aurora Biomed Inc.).
Series [8] deals with T1, hERG ion channels. The experiment in a line: DMR antagonism mode: modulation of the mallotoxin DMR signal in HEK-hERG cells. Conditions: for effect on the mallotoxin DMR signal in HEK-hERG cells (in words): antagonism assay.
Series [9] addresses T1, hERG ion channels. The experiment in a line: Label-free biosensor hERG modulator classification from profiles in HT29, HEK-hERG and HEK293 cells plus mallotoxin modulation. The settings on record: label-free biosensor cellular assays.
Source text: as §7, §6
In series [10] the target is hERG channel (Homo sapiens, UniProt Q12809). Briefly: Automated patch clamp recording using IonWorks, CHO-hERG cells. Conditions: 50 micromolar; tail current at -35 mV after +40 mV depolarization. As for the experimental part: CHO-K1 cells stably expressing hERG channel (CHO-hERG) were cultured in T175 flask till about 70% confluent. Cells were washed twice with PBS, then 2.5 ml 0.25% Trypsin/EDTA was mixed with 2.5 ml PBS and added to the T175 flask. Cells were incubated about 2 minutes with the diluted Trypsin/EDTA solution at 37° C., then were continuously incubated about 3 minutes at room temperature. 20 ml fresh medium were added to suspend the cells and transfer to a 50 ml tube. Cells were centrifuged down at 750 rpm for 5 minutes. The extra medium was removed and cells were resuspended in 6 ml External Buffer (137 mM NaCl, 4 mM KCl, 1.8 mM CaCl2, 1 mM MgCl2, 10 mM HEPES, 10 mM glucose, pH 7.4). Then cells were centrifuged again at 450 rpm for another 5 minutes. Finally cells were resuspended in 4 ml the External Buffer, cell number was counted using a hemacytometer. Cell suspension was diluted to 2.5×10^6 cells/ml with the External Buffer. 4 ml of the resuspended cells were added to the cell reservoir in IonWorks. The Internal solution used contains: 40 mM KCl, 100 mM K-Gluconate, 3.2 mM MgCl2, 2 mM CaCl2, 5 mM HEPES, pH 7.25 (adjusted with KOH). […]
Sequence of hERG channel (Q12809 whole entry): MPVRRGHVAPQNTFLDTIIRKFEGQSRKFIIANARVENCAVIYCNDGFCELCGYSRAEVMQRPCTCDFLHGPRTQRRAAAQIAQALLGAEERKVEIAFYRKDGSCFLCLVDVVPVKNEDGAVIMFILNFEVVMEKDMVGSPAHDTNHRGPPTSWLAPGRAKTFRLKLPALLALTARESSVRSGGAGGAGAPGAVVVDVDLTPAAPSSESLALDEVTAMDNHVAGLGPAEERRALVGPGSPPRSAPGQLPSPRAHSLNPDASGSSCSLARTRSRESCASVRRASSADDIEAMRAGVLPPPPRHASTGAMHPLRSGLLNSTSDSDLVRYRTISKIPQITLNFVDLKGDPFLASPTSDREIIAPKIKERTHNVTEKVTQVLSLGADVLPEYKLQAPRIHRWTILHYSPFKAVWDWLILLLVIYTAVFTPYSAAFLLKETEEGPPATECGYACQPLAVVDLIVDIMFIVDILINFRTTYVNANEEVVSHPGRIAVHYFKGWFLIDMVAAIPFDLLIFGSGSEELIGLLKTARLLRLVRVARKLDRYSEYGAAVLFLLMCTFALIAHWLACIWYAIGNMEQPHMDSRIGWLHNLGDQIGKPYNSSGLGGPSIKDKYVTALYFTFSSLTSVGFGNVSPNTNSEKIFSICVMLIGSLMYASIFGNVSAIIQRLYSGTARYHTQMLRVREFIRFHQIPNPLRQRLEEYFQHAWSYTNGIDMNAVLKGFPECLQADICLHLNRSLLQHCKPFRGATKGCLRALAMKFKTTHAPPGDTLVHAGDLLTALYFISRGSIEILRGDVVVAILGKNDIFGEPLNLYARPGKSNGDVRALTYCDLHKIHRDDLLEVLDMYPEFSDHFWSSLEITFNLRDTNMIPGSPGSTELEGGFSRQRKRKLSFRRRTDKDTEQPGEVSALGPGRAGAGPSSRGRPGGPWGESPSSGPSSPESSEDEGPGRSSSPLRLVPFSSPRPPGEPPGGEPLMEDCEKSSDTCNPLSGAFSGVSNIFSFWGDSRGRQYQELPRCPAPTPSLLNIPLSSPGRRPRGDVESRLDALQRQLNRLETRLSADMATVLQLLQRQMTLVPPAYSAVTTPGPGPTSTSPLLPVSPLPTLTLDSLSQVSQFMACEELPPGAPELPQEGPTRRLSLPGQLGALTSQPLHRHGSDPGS
hERG currents were recorded on IonWorks Quattro (Molecular Devices). […] Tail currents were measured during an ensuing return to −35 mV. […]
A general note: Patch clamp records ionic current or voltage across a cell membrane.

The mark [11] stands for this setting: molecule 10 micromolar, mallotoxin 16 micromolar.
Setting [12] is: score assigned from % modulation of mallotoxin DMR (10% = 1).

Entries after “also recorded” stand apart in the source; their conditions may differ. Like-named read-outs stand apart in the source and are kept apart here.

T1 sequence (Q12809 whole entry): as above

Consider `CCCCc1ccc(C2(C)OC(=C(C#N)C#N)C(C#N)=C2C)cc1` (centres unmarked) [Compound E, 2-dicyanomethylene-3-cyano-4,5-dimethyl-5-[4′-n-butylphenyl]-2,5-dihydrofuran], for which the “cell apoptosis or alteration in cell proliferation rate, MCF7” value (from here on “cell apoptosis or alteration … MCF7”) in [1] is “did not lead to cell apoptosis or any alteration in cell proliferation rate”. In series [2], the “DMR signal in HT29 cells” value is listed as “robust DMR signals”. Also, in [3], the “class of hERG modulator assigned” value was “hERG activators”. Further, in [4] (setting [11]), the “effect on the mallotoxin DMR signal in HT29 cells (in words)” value (“effect … in HT29 cells (in words)” below) is listed as “attenuated signal”. Moreover, in series [5], the “cytotoxicity on cancer cell line HT29” value is “did not exhibit cytotoxicity” and the “cell apoptosis or alteration in cell proliferation rate, HT29” value (shortened to “cell apoptosis or alteration … HT29”) was “did not lead to cell apoptosis or any alteration in cell proliferation rate”. Moreover, in series [6], the “DMR signal in HEK-hERG cells” value is on record as “robust DMR signals”. Also, in series [7], the “Rb+ flux signal” value was “small but detectable increase”. In addition, in series [8] (setting [11]), the “effect on the mallotoxin DMR signal in HEK-hERG cells (in words)” value is given as “attenuated signal”.

As to `CC1=C(C#N)C(=C(C#N)C#N)OC1(C)c1ccc(Cl)cc1Cl` (centres unmarked) [Compound G, 2-dicyanomethylene-3-cyano-4,5-dimethyl-5-[2′,4′-dichlorophenyl]-2,5-dihydrofuran], the melting point is 239 to 240 °C.

With `CC1=C(C#N)C(=C(C#N)C#N)OC12CCCCC2` [Compound U, 2-dicyanomethylene-3-cyano-4-methyl-5-spiro-cyclohexyl-2,5-dihydrofuran], the “cell apoptosis or alteration … MCF7” value in series [1] is listed as “did not lead to cell apoptosis or any alteration in cell proliferation rate”. Besides, in series [3], the “class of hERG modulator assigned” value is “label-free biosensor hERG activator”. In series [5], the “cytotoxicity on cancer cell line HT29” value was “did not exhibit cytotoxicity” and the “cell apoptosis or alteration … HT29” value is recorded as “did not lead to cell apoptosis or any alteration in cell proliferation rate”.

With `O=C(O)c1ccccc1Nc1cccc(C(F)(F)F)c1` [flufenamic acid], the “DMR signal in HT29 cells” value in [2] is listed as “robust DMR signals”. In addition, in series [4] (setting [11]), the “modulation index against the mallotoxin DMR signal in HT29” value was −90% and the “effect … in HT29 cells (in words)” value is given as “selectively attenuated”. Moreover, the “score of modulation index, HT29 coordinate” value in series [4] (setting [12]) is −9. The “DMR signal in HEK-hERG cells” value in series [6] was “robust DMR signals”. For the same compound, the “Rb+ flux signal” value in series [7] is “weak hERG ion flux activator; also recorded: small and dose-dependent increase”. For the same compound, the “modulation index against the mallotoxin DMR signal in HEK-hERG” value in series [8] (setting [11]) is “~+12%”. In series [8] (setting [12]), the “score of modulation index, HEK-hERG coordinate” value is given as 1. In addition, the “class of hERG modulator assigned” value in [9] is “hERG pathway activator, a label free biosensor hERG activator; also recorded: weak hERG activator”. Further, the “effect on hERG current (tail current)” value in [10] was “weak hERG current activator; also recorded: potentiated”.

Take `CC1=C(C#N)C(=C(C#N)C#N)OC1(C)c1ccc(F)cc1F` (centres unmarked) [Compound D, 2-dicyanomethylene-3-cyano-4,5-dimethyl-5-[2′,4′-difluorophenyl]-2,5-dihydrofuran]: in [1], the “cell apoptosis or alteration … MCF7” value was “did not lead to cell apoptosis or any alteration in cell proliferation rate”. Besides, the “DMR signal in HT29 cells” value in series [2] is recorded as “robust DMR signals”. Also, the “effect … in HT29 cells (in words)” value in series [4] (setting [11]) is “attenuated signal”. In addition, in series [5], the “cytotoxicity on cancer cell line HT29” value was “did not exhibit cytotoxicity” and the “cell apoptosis or alteration … HT29” value was “did not lead to cell apoptosis or any alteration in cell proliferation rate”. Moreover, the “DMR signal in HEK-hERG cells” value in series [6] was “robust DMR signals”. Besides, in series [7], the “Rb+ flux signal” value is listed as “small but detectable increase”. Also, in series [8] (setting [11]), the “effect on the mallotoxin DMR signal in HEK-hERG cells (in words)” value was “attenuated signal”.

One may read the melting point as the temperature, or range, at which the solid turns liquid.
